In brackets after ≈: the same amount, converted by molar mass. Like-named read-outs stand apart in the source and are kept apart here.
Legend:
[1] = system: primary rabbit kidney cell cultures; test: Minimal cytotoxic concentration in the antiviral test
Procedure: The antiviral properties of the compounds listed in Table 1 were tested to determine the minimum inhibitory concentration to achieve a 50% kill of the viruses in primary rabbit kidney cell cultures.

P388 murine leukemia = test: Antileukemic properties, ID50 vs P388 leukemia; format: cell-based; conditions: 25,000 cells per well; 72 hours incubation at 37° C.
Procedure: The compounds of the following Table 3 were prepared in accordance with processes of this invention.

Herpes simplex-1 = test: Antiviral test, minimum inhibitory concentration in primary rabbit kidney cell cultures; format: cell-based; conditions: 50% kill of the viruses in primary rabbit kidney cell cultures
Herpes-2 = test: as above; format: cell-based; conditions: 50% kill of the viruses in primary rabbit kidney cell cultures
Vaccinia = format: cell-based, vaccinia virus; conditions: for minimum inhibitory concentration against vaccinia virus: text of Examples 3(A) and 3(B), hydrochloride
[2] = system: FM3A murine mammary tumor; test: Anticancer properties, 50% cell kill (ID50); format: cell-based
RAJI human B lymphoblast = test: Anticancer properties, 50% cell kill (ID50); format: cell-based
Text: RAJI human B lymphoblast
FIG. 1 relates to such acitivity for the cell line MOLT/4F, human T lymphoblast. FIG. 2 related to the tumor cell lines of Raji, human B lymphoblast; all values being expressed in ID50 values in arbitrary units. […] The general formula for the compounds of this invention as tested in FIGS. 1 and 2 are of formula I, wherein A is represented by: [drawing 14] m is 1; n is 1 and Het is pyrrole, R is represented by the formula COk --(CH2)l --CO where l is equal to 0, 1, 2, 3, 4, 5, 6, 7 or 8 and k is equal to 0 or 1.

L1210 murine Leukemia = test: Anticancer properties, 50% cell kill (ID50); format: cell-based
[3] = system: MOLT/4F human T lymphoblast; test: Anticancer properties, 50% cell kill (ID50); format: cell-based
[4] = 50% kill of the viruses in primary rabbit kidney cell cultures

Row | SMILES | Minimal Cytotoxic Conc. [1] [μg/m] | ID50 vs P388 leukemia (P388 murine leukemia) [µg/mL] | Minimum Inhibitory Conc. Herpes simplex-1 (Herpes simplex-1) [µg/mL] | Minimum Inhibitory Conc. Herpes-2 (Herpes-2) [µg/mL] | Minimum Inhibitory Conc. Vaccinia (Vaccinia; [4]) [µg/mL] | Minimum Inhibitory Conc. FM3A (ID50) [2] [µg/mL] | Minimum Inhibitory Conc. RAJI (ID50) (RAJI human B lymphoblast) [µg/mL] | Minimum Inhibitory Conc. L1210 (ID50) (L1210 murine Leukemia) [µg/mL] | further results
1 | Cl.Cl.Cn1cc(NC(=O)c2cc(NC(=O)CCCCCCCC(=O)Nc3cc(C(=O)Nc4cc(C(=O)NCCC(=N)N)n(C)c4)n(C)c3)cn2C)cc1C(=O)NCCC(=N)N [m=1 n=1 R = CO(CH2)7 CO] | ≥ 100 | 0.75 | 40 | 40 | 0.2 | – | – | – | –
2 | Cl.Cl.Cn1cc(NC(=O)c2cc(NC(=O)CCCCC(=O)Nc3cc(C(=O)Nc4cc(C(=O)NCCC(=N)N)n(C)c4)n(C)c3)cn2C)cc1C(=O)NCCC(=N)N [m=1 n=1 l=4 k=1] | – | 1.05 | – | – | – | – | – | – | –
3 | Cl.Cl.Cn1cc(NC(=O)c2cc(NC(=O)CCCCCC(=O)Nc3cc(C(=O)Nc4cc(C(=O)NCCC(=N)N)n(C)c4)n(C)c3)cn2C)cc1C(=O)NCCC(=N)N [m=1 n=1 l=5 k=1] | – | 4.4 | – | – | – | – | – | – | –
4 | Cn1cc(NC(=O)c2cc(NC(=O)c3cc(NC=O)cn3C)cn2C)cc1C(=O)NCCC(=N)N [Distamycin, distamycin, reference compound] | – | 20 (≈ 41.5 µM) | 70 | 70 | – | 30.6 ± 2.4 | 23.7 ± 3.69 | 27.1 ± 4.7 | Minimal Cytotoxic Conc. ([1]; primary rabbit kidney cell cultures): 200 μg/m; Minimum Inhibitory Conc. Vaccinia (Vaccinia): 0.2 µg/mL
5 | Cl.Cl.Cn1cc(NC(=O)c2cc(NC(=O)CCCCCCC(=O)Nc3cc(C(=O)Nc4cc(C(=O)NCCC(=N)N)n(C)c4)n(C)c3)cn2C)cc1C(=O)NCCC(=N)N [m=1 n=1 R = CO(CH2)6 CO] | ≥ 10 | 0.70 | 10 | 10 | 0.2 | – | – | – | –
6 | Cl.Cn1cc(NC(=O)c2cc(NC(=O)C[N+](C)(C)C)cn2C)cc1C(=O)NCCC(=N)N.[Cl-] [Example 3(A), 1-Methyl-4-(1-methyl-4-trimethylammonium-acetamidopyrrole-2-carboxamido)pyrrole-2-carboxamidopropionamidine chloride hydrochloride] | – | – | – | – | – | – | – | – | minimum inhibitory concentration against vaccinia virus (Vaccinia): 20 µg/mL
7 | Cl.Cl.Cn1cc(NC(=O)c2cc(NC(=O)CC(=O)Nc3cc(C(=O)Nc4cc(C(=O)NCCC(=N)N)n(C)c4)n(C)c3)cn2C)cc1C(=O)NCCC(=N)N [m=1 n=1 R = COCH2CO] | – | 0.91 | – | – | – | 5.87 ± 2.23 | 3.39 ± 0.69 | 28.5 ± 9.7 | Minimum Inhibitory Conc. MOLT/4F (ID50) [3]: 2.85 ± 0.6 µg/mL
8 | Cl.Cl.Cn1cc(NC(=O)c2cc(NC(=O)c3cc(NC(=O)CCC(=O)Nc4cc(C(=O)Nc5cc(C(=O)Nc6cc(C(=O)NCCC(=N)N)n(C)c6)n(C)c5)n(C)c4)cn3C)cn2C)cc1C(=O)NCCC(=N)N [m=1 n=2 R = CO(CH2)2 CO] | ≥ 40 | – | 4 | 4 | 4 | 4.29 ± 1.12 | 4.14 ± 8.4 | > 100 | Minimum Inhibitory Conc. MOLT/4F (ID50) [3]: 100 µg/mL
9 | Cl.Cl.Cn1cc(NC(=O)c2cc(NC(=O)Nc3cc(C(=O)Nc4cc(C(=O)NCCC(=N)N)n(C)c4)n(C)c3)cn2C)cc1C(=O)NCCC(=N)N [m=1 n=1 l=0 k=0] | – | 8.0 | – | – | – | – | – | – | –
10 | Cl.Cl.Cn1cc(NC(=O)c2cc(NC(=O)CCCCCCCCC(=O)Nc3cc(C(=O)Nc4cc(C(=O)NCCC(=N)N)n(C)c4)n(C)c3)cn2C)cc1C(=O)NCCC(=N)N [m=1 n=1 R = CO[CH2]8CO] | – | 0.98 | – | – | – | 22.1 ± 11.1 | 3.34 ± 0.44 | 4.21 ± 1.52 | Minimum Inhibitory Conc. MOLT/4F (ID50) [3]: 2.97 ± 0.4 µg/mL
11 | Cl.Cl.Cn1cc(NC(=O)c2cc(NC(=O)CCCC(=O)Nc3cc(C(=O)Nc4cc(C(=O)NCCC(=N)N)n(C)c4)n(C)c3)cn2C)cc1C(=O)NCCC(=N)N [m=1 n=1 l=3 k=1] | – | 6.4 | – | – | – | – | – | – | –
12 | Cl.Cl.Cn1cc(NC(=O)c2cc(NC(=O)/C=C/C(=O)Nc3cc(C(=O)Nc4cc(C(=O)NCCC(=N)N)n(C)c4)n(C)c3)cn2C)cc1C(=O)NCCC(=N)N [m=1 n=1 R = COCH CHCO (trans)] | ≥ 40 | – | – | 10 | 2 | – | – | – | –
13 | Cl.Cn1cc(NC(=O)c2cc(NC(=O)C[N+](C)(C)C)cn2C)cc1C(=O)NCCC(=N)N.[Cl-] [3(B), 1-Methyl-4-(1-methyl-4-trimethylammonium-acetamidopyrrole-2-carboxamido)pyrrole-2-carboxamidopropionamidine chloride hydrochloride] | – | – | – | – | – | – | – | – | minimum inhibitory concentration against vaccinia virus (Vaccinia): 300 µg/mL

Source: US4912199A, “Oligopeptide anticancer and antiviral agents” (The Governors of the University of Alberta, priority 1987, dated 1990)
